Like-named read-outs stand apart in the source and are kept apart here. Where a SMILES comes first, the peptide text is derived from it. The star is where a group is joined. Cbz = O=C(OCc1ccccc1)*
What was measured:
[1] = test system: HIF transcriptional activity; assay: HIF-dependent luciferase reporter assay (FLuc/RLuc ratio) in Hep3B-c1 cells; format: cell-based; conditions: Homo sapiens, 1% O2, 24 hours, read-out: IC50, inhibition of HIF-dependent reporter gene expression
Excerpt: The NCI CellMiner database contains expression data for over 25,000 mRNAs in 60 human cancer cell lines that have been exposed to more than 20,000 chemical compounds ([49]). We searched CellMiner for a compound that induced changes in gene expression that were highly correlated with those induced by acriflavine, but which was structurally unrelated to acriflavine. Compounds that satisfied the above criteria were identified and subsequently analyzed in Hep3B-c1 cells ([50]), which are stably transfected with HIF-dependent reporter plasmid p2.1, in which firefly luciferase (FLuc) coding sequences are located downstream from a hypoxia-response element (HRE) and a basal SV40 promoter; and control reporter pSVR, in which Renilla luciferase (RLuc) coding sequences are downstream of the basal SV40 promoter only (Figure 1A). The FLuc/RLuc ratio in cells exposed to 1% O2 for 24 hours is a specific measure of HIF-dependent gene expression.
Figure 1 Identification of HIF inhibitors. (A) Hep3B-c1 cells were stably transfected with firefly luciferase (FLuc) reporter p2.1, which contains a hypoxia-response element (HRE), and Renilla luciferase (RLuc) reporter pSVR. (B) Hep3B-c1 cells were incubated with vehicle (Veh; 0.1% DMSO; blue bars) or 10 μM 32-134D (red bars) at 20% O2 (n = 6) or 1% O2 (n = 12) for 24 hours. Cell lysates were assayed for Fluc/Rluc activity (mean ± SEM); *P < 0.05 versus vehicle (χ^2 test). (C) Chemical structures and IC50 values for HIF inhibitors. (D and E) Hep3B cells were exposed to 20% O2 with vehicle, or 1% O2 with vehicle (blue bar), 32-134D (red bars), 33-063 (green bars), or PT2385 (brown bars) for 24 hours and CA9 (D) and EPO (E) mRNAs were quantified by RT-qPCR. […] (F) Hep3B cells were exposed to 20% or 1% O2 in the presence of vehicle or 1% O2 in the presence of 5 μM 32-134D (n = 3 each) for 24 hours. […]
Hep3B-c1 cells ([50]) were seeded on 24-well plates. […] FLuc/RLuc ratios were determined using the Dual Luciferase Reporter Assay System (Supplemental Table 6) and the VICTOR Nivo plate reader (PerkinElmer).

Hepa1-6 mouse HCC cells = assay: RT-qPCR of hypoxia-induced gene expression in Hepa1-6 cells; format: cell-based; conditions: Hepa1-6, 1% O2, 24 hours
Method: Next, we analyzed Hepa1-6, which is a mouse HCC cell line. […] CXCL1, IL-6, and IL-10 were not induced by hypoxia, whereas hypoxia-induced IL-22 expression was inhibited by 32-134D (P < 0.05; Figure 3C).
Figure 3 Effect of 32-134D treatment on hypoxia-induced gene expression in Hepa1-6 cells. (A–C) Cells were exposed to 20% O2 and vehicle (white bars), 1% O2 and vehicle (blue bars), or 1% O2 and 32-134D (red bars) for 24 hours and mRNAs were quantified by RT-qPCR and normalized to white (mean ± SEM, n = 4). *P < 0.05 versus white; ^#P < 0.05 versus blue (ANOVA with Bonferroni’s post hoc test).
(§1) RNA was extracted using TRIzol Reagent. Quantitative real-time PCR was conducted using SYBR Green PCR Master Mix and reactions were run using a Bio-Rad thermal cycler. Primer sequences and reagent sources are listed in Supplemental Table 5. The mRNA expression of target genes was normalized to the expression of 18S rRNA and the fold change (FC) was calculated based on the threshold cycle (Ct) as FC = 2^–Δ(ΔCt), where ΔCt = Cttarget gene – Ct18S rRNA and Δ(ΔCt) = ΔCttreatment – ΔCtcontrol. For RNA-seq, total RNA was isolated and treated with DNase (Qiagen). The JHU GRCF High-Throughput Sequencing facility prepared libraries and performed RNA-seq. The RNA-seq data were processed and interpreted using Genialis Expressions software (https://www.genialis.com/expressions/). An automated data analysis pipeline run in the Genialis platform consisted of the following: Sequence quality checks were performed on raw and trimmed reads with FastQC. Bbduk was used to trim adapters and filter out poor quality reads. Trimmed reads were then mapped to the STAR index (ENSEMBL 100) reference genome using the STAR ([93]) aligner. Gene expression levels were quantified with featureCounts ([94]), and differential gene expression analyses were performed with DESeq2 ([95]). […] Differential expression was determined with an FDR of less than 0.05 and mRNA FC of greater than 1.5 to identify hypoxia-induced genes and genes inhibited by 32-134D. Data used in this study have been deposited in the NCBI Gene Expression Omnibus database (GEO GSE195997).
Supplemental Figure 7. Effect of 32-134D on gene expression in Hepa1-6 cells. Cells were exposed to 20% O2 and vehicle (white bar) or 1% O2 and vehicle (blue bar), 2.5-10 […]
for 24 hours and mRNAs were quantified by RT-qPCR and normalized to white (mean + SEM, n = 4). *p < 0.05 vs white; #p < 0.05 vs blue (ANOVA with Bonferroni post-test).
(1 picture or pasted object on this page, not shown here)

[2] = test system: HIF target genes in Hep3B cells; assay: RT-qPCR of endogenous HIF target gene expression in Hep3B cells; format: cell-based, human; conditions: Hep3B cells, 1% O2, 24 hours
Excerpt: Based on this hit, we synthesized analogs in which either halogen substitutions to the indole groups were altered or the central thiazole was replaced by imidazole, isoxazole, oxadiazole, oxazole, pyrazinone, pyridazine, pyrazine, pyrazole, pyridine, thiadiazole, triazine, or triazole. […] We focused on analyzing the effect of the bis-bromoindole thiazole 32-134D and the bis-indole thiadiazole 33-063 on endogenous HIF target gene expression in Hep3B cells. […] For comparison, we tested the effect of PT2385, which inhibited EPO, NDRG1, ANGPTL4, and VEGFA expression but had no effect on CA9, which is consistent with its HIF-2–selective mechanism of action ([44]). None of the compounds had any effect on RPL13A expression, which is neither induced by hypoxia nor regulated by HIFs (Supplemental Figure 2D).
Human Hep3B and mouse Hepa1-6 cells were purchased from ATCC and grown in high-glucose (4.5 mg/mL) Dulbecco’s modified Eagle’s medium supplemented with 10% (vol/vol) fetal bovine serum and 1% penicillin/streptomycin at 37°C in a 5% CO2/95% air incubator (Supplemental Table 6). Human cell line identity was authenticated by analysis of short tandem repeats, and all cell lines were maintained mycoplasma free, using PCR-based assays conducted at the Johns Hopkins University Genetic Resources Core Facility (JHU GRCF). Cells were subjected to hypoxia in a controlled atmosphere chamber (PLAS Labs) with ambient gas mixture containing 1% O2 and 5% CO2.
as §1
Supplemental Figure 2. Effect of 32-134D on gene expression in Hep3B cells. (A-D) Hep3B cells were exposed to 20% O2 in the presence of vehicle (first bar; no fill) or 1% O2 in the presence of: vehicle (blue bar) or the indicated concentration of 32-134D (bars with red fill) or 33-063 (bars with green fill), or PT2385 (bars with brown fill) for 24 hours and the indicated mRNAs were quantified by reverse transcription and quantitative real-time PCR (qPCR). Data are presented as mean + SEM (n = 3). *p < 0.05 vs white; **p < 0.01 vs blue (ANOVA with Bonferroni post-test). […]
(G-H) Analysis of HIF-1a (G) and HIF-2a (H) […]
mRNA expression in Hep3B cells exposed to vehicle or 32-134D at 20% or 1% O2 for 24

[3] = test system: HIF-1α and HIF-2α protein; assay: Immunoblot of nuclear extracts of Hep3B cells; format: cell-based, human; conditions: 5 μM MG132 during last 8 hours, 5 μM 32-134D
Method: Figure 1 Identification of HIF inhibitors. (A) Hep3B-c1 cells were stably transfected with firefly luciferase (FLuc) reporter p2.1, which contains a hypoxia-response element (HRE), and Renilla luciferase (RLuc) reporter pSVR. (B) Hep3B-c1 cells were incubated with vehicle (Veh; 0.1% DMSO; blue bars) or 10 μM 32-134D (red bars) at 20% O2 (n = 6) or 1% O2 (n = 12) for 24 hours. Cell lysates were assayed for Fluc/Rluc activity (mean ± SEM); *P < 0.05 versus vehicle (χ^2 test). (C) Chemical structures and IC50 values for HIF inhibitors. (D and E) Hep3B cells were exposed to 20% O2 with vehicle, or 1% O2 with vehicle (blue bar), 32-134D (red bars), 33-063 (green bars), or PT2385 (brown bars) for 24 hours and CA9 (D) and EPO (E) mRNAs were quantified by RT-qPCR. […] (F) Hep3B cells were exposed to 20% or 1% O2 in the presence of vehicle or 1% O2 in the presence of 5 μM 32-134D (n = 3 each) for 24 hours. RNA sequencing identified genes with hypoxia-induced expression (blue circle) and genes that were inhibited by 32-134D (orange circle), based on FDR < 0.05 and fold change > 1.5. (G) Hep3B cells were exposed to 20% or 1% O2 for 24 hours in the presence of vehicle or 5 μM 32-134D, nuclear extracts were prepared, and immunoblot assays were performed. […]

[4] = test system: HIF-1, HIF-2 and p300 recruitment to HREs; assay: ChIP-qPCR of HRE occupancy in Hep3B cells; format: cell-based, human; conditions: 16 hours, 5 µM 32-134D or 10 µM PT2385
Method: Coadministration of the proteasome inhibitor MG-132 blocked the effect of 32-134D on HIF-1α protein levels (Figure 1H). […] Taken together, the results presented in Figure 1 and Supplemental Figures 1–3 indicate that 32-134D induces HIF-α subunit degradation, thereby inhibiting activation of HIF-1 and HIF-2 target gene transcription.
Cells were seeded overnight and then exposed to 20% or 1% O2 in the presence of compound or vehicle for 16 hours. Protein was cross-linked to DNA by addition of 37% formaldehyde to culture medium for 10 minutes at 37°C and quenched by addition of 0.1 M glycine. Cells were washed with and collected in 5 mL of cold PBS containing PIs. Cells were pelleted and resuspended in 200 μL of SDS lysis buffer (50 mM Tris-HCl [pH 8.1], 10 mM EDTA, 1% SDS) containing PIs and incubated on ice for 10 minutes. Lysates were sonicated to produce DNA fragments ranging from 200 to 900 bp and centrifuged for 10 minutes at 4°C. Supernatants were collected and diluted 10-fold with dilution buffer (16.7 mM Tris-HCl [pH 8.1], 167 mM NaCl, 1.2 mM EDTA, 0.01% SDS, 1.1% Triton X-100) with PIs, precleared with 20 μL of salmon sperm DNA/protein A agarose slurry, and a 20-μL aliquot was reserved as input control. Antibody (2 μg; see Supplemental Table 6) was added and samples were rotated overnight at 4°C. Immune complexes were precipitated with 50 μL of salmon sperm DNA/protein A agarose slurry. Pelleted beads were washed serially using low-salt wash buffer (20 mM Tris-HCl [pH 8.1], 150 mM NaCl, 2 mM EDTA, 0.1% SDS, 1% Triton X-100); high-salt wash buffer (20 mM Tris-HCl [pH 8.1], 500 mM NaCl, 2 mM EDTA, 0.1% SDS, 1% Triton X-100); LiCl wash buffer (10 mM Tris-HCl [pH 8.1], 0.25 M LiCl, 1% Nonidet P-40, 1% deoxycholate, 1 mM EDTA); and TE buffer (10 mM Tris-HCl [pH 8.1], 1 mM EDTA). Elution buffer (1% SDS, 0.1 M NaHCO3) was added and eluates were heated at 65°C overnight to reverse cross-linking. Eluates were treated with proteinase K for 1 hour at 45°C and DNA was purified by extraction in phenol/chloroform/isoamyl alcohol (25:24:1, v/v/v) and isopropanol precipitation. […]

[5] = cited from earlier work
[6] = von Hippel-Lindau syndrome patients

Question: With Brc1ccc2c(-c3nc(-c4c[nH]c5ccc(Br)cc45)cs3)c[nH]c2c1 [Compound 11-88, reference compound] as the molecule, how does the IC50 [1] read?
Answer: 2900 nM

Question: With c1ccc2c(-c3nsc(-c4c[nH]c5ccccc45)n3)c[nH]c2c1 [Compound 33-063] as the molecule, how does the “RPL13A mRNA expression” value (Hepa1-6 mouse HCC cells) read?
Answer: no effect

Question: What about the “hypoxia-induced ANGPTL4, EPO, PGF, and VEGFA mRNA expression” value (Hepa1-6 mouse HCC cells; 2.5-10 µM) of the same molecule?
Answer: significant dose-dependent inhibition

Question: What about the IC50 [1] of the same molecule?
Answer: 2200 nM

Question: What about the “hypoxia-induced ANGPTL4, VEGFA, NDRG1 and EPO mRNA expression” value [2] of the same molecule?
Answer: significantly inhibited

Question: And the “hypoxia-induced CA9 mRNA expression (activated by HIF-1 only)” value [2]?
Answer: significantly inhibited

Question: For CC(C)C[C@@H](C=O)NC(=O)[C@H](CC(C)C)NC(=O)[C@H](CC(C)C)NC(=O)OCc1ccccc1 [MG-132, reference compound] (Cbz-Leu-Leu-Leu-aldehyde), which “effect of 32-134D on HIF-1α protein levels on coadministration” value [3] is on record?
Answer: blocked

Question: With CS(=O)(=O)c1ccc(Oc2cc(F)cc(C#N)c2)c2c1[C@H](O)C(F)(F)C2 [PT2385, reference compound] as the molecule, how does the “hypoxia-induced recruitment of HIFs and p300 to EPO and ANGPTL4 HREs” value [4] read?
Answer: inhibited

Question: What about the “ANGPTL4, PGF, and VEGFA mRNA expression, potency compared with 32-134D and 33-063” value (Hepa1-6 mouse HCC cells; 5-10 µM) of the same molecule?
Answer: less potent inhibitor

Question: What about the “patients with grade 3 anemia” value ([5]; phase I trial) of the same molecule?
Answer: 10%

Question: And the “hypoxia-induced ANGPTL4, VEGFA, NDRG1 and EPO mRNA expression” value [2]?
Answer: inhibited

Question: And the “hypoxia-induced CA9 mRNA expression (activated by HIF-1 only)” value [2]?
Answer: no effect

Question: What does the source list for CS(=O)(=O)c1ccc(Oc2cc(F)cc(C#N)c2)c2c1[C@H](O)[C@H](F)[C@@H]2F [belzutifan/PT2977]?
Answer: patients with decreased blood hemoglobin levels [5, 6]: 90%; patients with grade 3 anemia [5, 6]: 7%

From paper PMC9057582, “HIF inhibitor 32-134D eradicates murine hepatocellular carcinoma in combination with anti-PD1 therapy” (The Journal of Clinical Investigation, 2022)
